{"source": "patent US9814732B2", "about": "“Ulipristal acetate for prevention and treatment of breast tumors” (LABORATOIRE HRA-PHARMA, priority 2012, dated 2017)", "key": {"[1]": {"tested_on": "PR target genes (FASN, cyclin A, BCL2, ALPL)", "assay": "qRT-PCR mRNA expression of PR target genes in T-47D cells", "assay_type": "cell-based, human", "description": "(§1) After seeding, cells were cultured for 24 h in serum and phenol red free medium. Then treatments were carried out in a phenol red free medium containing 5% dextran-charcoal stripped serum. Cells were treated with P or DEX (100 nM), alone or in combination with UPA, RU (1 nM to 1 μM) or CDB-3877 (100 nM). Control cells were treated with ethanol, at […] 1:1000 final ethanol concentration alone as vehicle or E2 (10 nM).\n(§2) Total RNA was extracted using TriZOL Reagent (Invitrogen, Cergy-Pontoise, France).\n(§3) 2 μg of total RNA was subjected to reverse transcription (RT) using random primers for 1 h at 37° C. 2 μl of RT product was diluted (1:10) and subjected to quantitative PCR using sequence specific primers (300 nM) and Brillant SYBR GREEN QPCR master mix (Fermentas, Saint-Rémy-lès-Chevreuse, France) on an Mx3000P apparatus (Agilent Technologies, Massy, France). Conditions were 1 cycle at 95° C. for 10 min followed by 40 cycles at 95° C. for 30 sec, 60° C. for 1 min and 72° C. for 30 sec. Gene expression values were normalized to the housekeeping gene 36B4. Time of steroid treatment was chosen to get the optimal stimulation for a given gene. ALPL and G0S8 mRNA were analyzed after 6 h of treatment. IEX-1, FASN, and BCL2 were analyzed after 24 h of treatment. Cyclin A mRNA was analyzed after 24 h for GR responses or 48 h for PR responses."}, "[2]": {"tested_on": "MCF-7 cells", "assay": "Tritiated thymidine incorporation (proliferation) in MCF-7 cells", "assay_type": "cell-based, human", "details": "48 h", "description": "as §1\n(§4) After 24 h of hormonal treatment, cells were incubated with [methyl-1 3H] thymidine (Perkin Elmer, Courtaboeuf, France) for 48 h or 20 h for KBE or cancer cells, respectively at 37° C. After incubation cells were washed twice with PBS 1× and once with 5% trichloroacetic acid (TCA). Cells were incubated in 5% TCA for 15 min at 4° C. and lysed in NaOH 0.1 N for 30 min at 37° C. The total cell lysate was added to 5 ml of Ecolite scintillation liquid (MP biomedical, Illkirch, France) and radioactivity was counted with a β-counter HIDEX 300SL (ScienceTec, Courtaboeuf, France)."}, "[3]": {"tested_on": "MCF-7 cells", "assay": "Apoptosis, sub-G1 quantification by flow cytometry in MCF-7 cells", "assay_type": "cell-based, human", "details": "48 h", "description": "as §1\nAfter 96 h or 48 h of hormonal treatment, respectively, for HBE or MCF-7 and T-47D cells, cells were washed in PBS, matrix dissociated with accutase enzyme (PAA laboratory, Les Mureaux, France), and centrifuged 5 minutes at 1350 rpm. Cells were fixed and frozen at −20° C. in 70% ethanol. Before analysis, cells were washed in PBS and stained with 10 μg/ml propidium iodide in PBS (containing 0.835 U/ml RNase A) (Sigma, St Quentin Fallavier, France). For each sample at least 10 000 cells were counted in a BD LSR II flow cytometer (BD Biosciences, Le Pont de Claix, France). After gating out doublets and debris, cycle distribution was analyzed using the ModFit LT software (Verity Software House, USA)."}, "[4]": {"tested_on": "HBE cells", "assay": "Tritiated thymidine incorporation (proliferation) in HBE cells", "assay_type": "cell-based, human", "details": "96 h", "description": "as §1, §4"}, "[5]": {"tested_on": "HBCx-34 tumors", "assay": "HBCx-34 human mammary ductal carcinoma xenograft tumor growth in nude mice", "assay_type": "in vivo", "details": "UPA 130 mg/kg p.o., 42 days", "excerpt": "The xenograft model used in this study was HBCx-34. HBCx-34 is a mammary ductal carcinoma with wild type P53, no HER2 overexpression and PR and ERα overexpression. […] HBCx-34 has got no cachectic property.\nHBCx-34 tumors (P14.0.0/2) were transplanted subcutaneously onto 5-10 mice (donor mice, passage (n-1), female athymic nude mice (Hsd:Athymic Nude-Fox1nu), 6- to 9-week-old, Harlan Laboratories (Gannat, France)). When these tumors reached 1000 to 2000 mm3 (between 60 to 78 days), donor mice were sacrificed by cervical dislocation, tumors were aseptically excised and dissected. After removing necrotic areas, tumors were cut into fragments measuring approximately 20 mm3 and transferred for 10 min maximum in sterile DMEM/F12 culture medium, without any additional components, before grafting.\nHealthy mice aged 6 to 9 weeks and weighing at least 20 g were included in the study. Mice were anaesthetized with ketamine/xylazine, and then skin was aseptized with a chlorhexidine solution, incised at the level of the interscapular region, and a 20 mm3 tumor fragment was placed in the subcutaneous tissue. Skin was closed with clips.\n(§5) Mice were allocated to different groups according to their tumor volume to give homogenous mean and median tumor volume in each treatment arms. Ten mice/group, with HBCx-34 tumors between 75 and 144 mm^3, were randomized according to their tumor volume into experimental groups, and treatments (UPA 130 mg/kg, p.o. or control vehicle) were initiated 33 days post implantation of the tumor for a total duration of 42 days.\nTumor volume was evaluated biweekly during all the experimental period. Tumors were collected at the end of treatment, weight and processed for analysis."}, "[6]": {"tested_on": "PR target genes (FASN, cyclin A, BCL2, ALPL)", "assay": "qRT-PCR mRNA expression of PR target genes in HBE cells", "assay_type": "cell-based, human", "description": "as §1, §2, §3"}, "[7]": {"assay": "Tolerability and body weight in HBCx-34 tumor-bearing nude mice", "assay_type": "in vivo", "details": "UPA 130 mg/kg p.o., 42 days", "description": "as §5\nAnimals were weighted biweekly during all the experimental period. Toxicity of the different treatments was determined as body weight loss."}, "[8]": {"tested_on": "GR target genes (IEX-1, G0S8, cyclin A, BCL2)", "assay": "qRT-PCR mRNA expression of GR target genes in MCF-7 cells", "assay_type": "cell-based, human", "description": "as §1, §2, §3"}, "[9]": {"tested_on": "GR target genes (IEX-1, G0S8, cyclin A, BCL2)", "assay": "qRT-PCR mRNA expression of GR target genes in HBE cells", "assay_type": "cell-based, human", "description": "as §1, §2, §3"}, "[10]": {"details": "P and/or UPA 100 nM, E2 10 nM, 24 h"}}}
{"smiles": "CC(=O)O[C@]1(C(C)=O)CCC2C3CCC4=CC(=O)CCC4=C3[C@@H](c3ccc(N(C)C)cc3)C[C@@]21C", "note": "(some centres unmarked) [UPA, 17[…]-acetoxy-11[…]-[4-N,N-dimethylamino-phenyl)-19-norpregna-4,9-diene-3,20-dione]", "values": [{"measurement": "ALPL mRNA expression", "setting": "[1]; P and/or UPA 100 nM, 6 h", "result": "totally inhibited the strong P mediated induction of ALPL transcript"}, {"measurement": "FASN mRNA expression", "setting": "[1]; P and/or UPA 100 nM, 24 h", "result": "able to prevent P induction of FASN mRNA expression"}, {"measurement": "BCL2 mRNA expression (PR response)", "setting": "[1]; P and/or UPA 100 nM, 24 h, p<0.01", "result": "antagonized the P inhibitory effect on this transcript"}, {"measurement": "cyclin A mRNA expression (PR response)", "setting": "[1]; P and/or UPA 100 nM, 48 h", "result": "reversed P-induced cyclin A mRNA down-regulation"}, {"measurement": "PR agonist activity on PR target genes", "setting": "[1]; UPA 100 nM alone", "result": "did not display any PR agonist activity"}, {"measurement": "cell proliferation ([3H] thymidine incorporation), compound alone", "setting": "[2]; 100 nM", "result": "had no effect on proliferation"}, {"measurement": "effect of UPA on DEX-mediated proliferation change", "setting": "[2]; DEX 100 nM + UPA 100 nM", "result": "tended to prevent the weak anti-proliferative effects of DEX"}, {"measurement": "cell apoptosis (sub-G1 percentage), compound alone", "setting": "[3]; 100 nM", "result": "had no apoptotic or survival properties by itself"}, {"measurement": "effect of UPA on DEX-mediated apoptosis", "setting": "[3]; DEX 100 nM + UPA 100 nM", "result": "totally inhibited by UPA"}, {"measurement": "cell proliferation ([3H] thymidine incorporation), compound alone", "setting": "[4]; 100 nM", "result": "had no effect on proliferation"}, {"measurement": "effect of UPA on DEX-mediated proliferation change", "setting": "[4]; DEX 100 nM + UPA 100 nM", "result": "inhibited the strong proliferative activity induced by DEX"}, {"measurement": "effect of UPA on P-mediated proliferation change", "setting": "[4]; P 100 nM + UPA 100 nM", "result": "did not inhibit the anti-proliferative effect induced by P"}, {"measurement": "ratio of TV in treated vs. control group (T/C)", "setting": "[5]", "result": 53, "unit": "%"}, {"measurement": "increase in mean tumor volume (TV) at the end of treatment", "setting": "[5]; control 4.63-fold", "result": 2.17, "unit": "fold"}, {"measurement": "mean TV at sacrifice", "setting": "[5]; control 625.0±108.6 mm^3", "result": "332.0±61.0", "unit": "mm^3"}, {"measurement": "BCL2 mRNA expression (PR response)", "setting": "[6]; [10]", "result": "did not reverse BCL2 mRNA down-regulation induced by P"}, {"measurement": "FASN mRNA expression", "setting": "[6]; [10]", "result": "able to prevent P induction of FASN mRNA expression"}, {"measurement": "cyclin A mRNA expression (PR response)", "setting": "[6]; P and/or UPA 100 nM, E2 10 nM, 48 h", "result": "reversed P-induced cyclin A mRNA down-regulation"}, {"measurement": "PR agonist activity on PR target genes", "setting": "[6]; UPA 100 nM alone", "result": "did not display any PR agonist activity"}, {"measurement": "body weight loss", "setting": "[7]", "result": "no significant body weight loss"}, {"measurement": "tolerability of treatment", "setting": "[7]", "result": "well tolerated"}, {"measurement": "treatment related clinical observation", "setting": "[7]", "result": "No treatment related clinical observation"}, {"measurement": "G0S8 mRNA expression", "setting": "[8]; DEX and/or UPA 100 nM, 6 h, p<0.001", "result": "anti-glucocorticoid activity was strong"}, {"measurement": "BCL2 mRNA expression (GR response)", "setting": "[8]; DEX and/or UPA 100 nM, 24 h", "result": "partially antagonized this effect"}, {"measurement": "IEX-1 mRNA expression", "setting": "[8]; DEX and/or UPA 100 nM, 24 h", "result": "did not antagonize this response"}, {"measurement": "cyclin A mRNA expression (GR response)", "setting": "[8]; DEX and/or UPA 100 nM, 24 h", "result": "partially inhibited DEX effect on cyclin A mRNA expression"}, {"measurement": "glucocorticoid agonist activity on GR target genes", "setting": "[8]; UPA 100 nM alone", "result": "did not display any glucocorticoid agonist activity"}, {"measurement": "G0S8 mRNA expression", "setting": "[9]; DEX and/or UPA 100 nM, 6 h", "result": "slight and non-significant antagonist effect"}, {"measurement": "BCL2 mRNA expression (GR response)", "setting": "[9]; DEX and/or UPA 100 nM, 24 h", "result": "did not reverse the DEX down-regulation of BCL2 mRNA"}, {"measurement": "IEX-1 mRNA expression", "setting": "[9]; DEX and/or UPA 100 nM, 24 h", "result": "did not antagonize this response"}, {"measurement": "cyclin A mRNA expression (GR response)", "setting": "[9]; DEX and/or UPA 100 nM, 24 h", "result": "partially inhibited DEX effect on cyclin A mRNA expression"}, {"measurement": "glucocorticoid agonist activity on GR target genes", "setting": "[9]; UPA 100 nM alone", "result": "did not display any glucocorticoid agonist activity"}]}
